Assay results reported in US20120040966A1, “ANTI-VIRAL COMPOUNDS, TREATMENT, AND ASSAY” (priority 2008, published 2012).

System: influenza strain A/VN/1203/2004 (H5N1)
Assay: microbe, parasite or virus in culture
Format: cell-based, Influenza A virus (H5N1)
Conditions: Influenza A virus, H5N1, MDCK, 72 h, read-out: H5N1 EC50 (@ 50% Via)

Structure (SMILES) | EC50 [µM]
Cc1ccc(C2NC(=O)NC3=C2CCCc2ccccc23)cc1 (stereo not shown) [compound 22083] | 28
COc1ccc2c(c1)C1=C(CC2)C(c2ccc(C)cc2)NC(=O)N1 (stereo not shown) [compound 22087] | > 50
Cc1ccc(C2NC(=O)NC3=C2COc2ccccc23)cc1C (stereo not shown) [compound 22105] | 1.8
COc1cccc(C2NC(=O)NC3=C2COc2ccccc23)c1 (stereo not shown) [compound 22107] | > 50
O=C1NC2=C(CCc3ccccc32)C(c2ccc(C(F)(F)F)cc2)N1 (stereo not shown) [compound 22119] | 32.9
O=C1NC2=C(CCc3ccccc32)C(c2ccc3c(c2)OCO3)N1 (stereo not shown) [compound 22121] | 0.39
COc1cccc2c1CCC1=C2NC(=O)NC1c1ccc(C)cc1 (stereo not shown) [compound 22123] | 18.3
COc1ccc(-c2nc(=O)[nH]c3c2CCc2ccccc2-3)cc1 [compound 22125] | 0.96
O=C1NC2=C(CCc3ccccc32)C(c2cccc([N+](=O)[O-])c2)N1 (stereo not shown) [compound 22347] | 5.5
O=C1NC2=C(CCc3ccccc32)C(c2ccc([N+](=O)[O-])cc2)N1 (stereo not shown) [compound 22349] | 1.17
COc1ccc(C2NC(=O)NC3=C2CN(C(=O)Cn2ccnc2)c2ccccc23)cc1Br (stereo not shown) [compound 25010] | < 0.316
COc1ccc(C2NC(=O)NC3=C2CN(C(=O)CNCCN2CCOCC2)c2ccccc23)cc1Br (stereo not shown) [compound 25011] | 3.9
COc1ccc(C2NC(=O)NC3=C2CN(C(=O)CSCCN(C)C)c2ccccc23)cc1Br (stereo not shown) [compound 25410] | 0.714

Same assay, conditions: Influenza A virus, H5N1, MDCK, 72 h, read-out: H5N1 EC50 (Inf Pt)

Structure (SMILES) | EC50 [µM]
Cc1ccc(C2NC(=O)NC3=C2COc2ccccc23)cc1C (stereo not shown) [compound 22105] | 1
COc1cccc(C2NC(=O)NC3=C2COc2ccccc23)c1 (stereo not shown) [compound 22107] | > 50
COc1cccc2c1CCC1=C2NC(=O)NC1c1ccc(C)c(C)c1 (stereo not shown) [compound 22113] | 2.4
O=C1NC2=C(CCc3ccccc32)C(c2ccc(C(F)(F)F)cc2)N1 (stereo not shown) [compound 22119] | 14.8
O=C1NC2=C(CCc3ccccc32)C(c2ccc3c(c2)OCO3)N1 (stereo not shown) [compound 22121] | 0.34
COc1cccc2c1CCC1=C2NC(=O)NC1c1ccc(C)cc1 (stereo not shown) [compound 22123] | 10.9
COc1ccc(-c2nc(=O)[nH]c3c2CCc2ccccc2-3)cc1 [compound 22125] | 0.92
O=C1NC2=C(CCc3ccccc32)C(c2cccc([N+](=O)[O-])c2)N1 (stereo not shown) [compound 22347] | 4.2
O=C1NC2=C(CCc3ccccc32)C(c2ccc([N+](=O)[O-])cc2)N1 (stereo not shown) [compound 22349] | 0.95
COc1ccc(C2NC(=O)NC3=C2CN(C(=O)Cn2ccnc2)c2ccccc23)cc1Br (stereo not shown) [compound 25010] | 0.082
COc1ccc(C2NC(=O)NC3=C2CN(C(=O)CNCCN2CCOCC2)c2ccccc23)cc1Br (stereo not shown) [compound 25011] | 3.9
COc1ccc(C2NC(=O)NC3=C2CN(C(=O)CSCCN(C)C)c2ccccc23)cc1Br (stereo not shown) [compound 25410] | 0.669

Same assay, conditions: read-out: H5N1 EC50 (@ 50% Via)

Structure (SMILES) | EC50 [µM]
Cc1ccc(C2NC(=O)NC3=C2COc2ccccc23)cc1C (stereo not shown) [compound 22105] | 2.7
COc1ccc(-c2nc(=O)[nH]c3c2CCc2ccccc2-3)cc1 [compound 22125] | 1.62

Same assay, conditions: read-out: H5N1 EC50 (Inf Pt)

Structure (SMILES) | EC50 [µM]
Cc1ccc(C2NC(=O)NC3=C2COc2ccccc23)cc1C (stereo not shown) [compound 22105] | 1.9
COc1cccc2c1CCC1=C2NC(=O)NC1c1ccc(C)c(C)c1 (stereo not shown) [compound 22113] | 4.4
O=C1NC2=C(CCc3ccccc32)C(c2ccc3c(c2)OCO3)N1 (stereo not shown) [compound 22121] | 0.22
COc1ccc(-c2nc(=O)[nH]c3c2CCc2ccccc2-3)cc1 [compound 22125] | 1.45

System: Influenza virus strain A/CA/04/2009 (H1N1)
Assay: organism not typed
Format: cell-based
Conditions: MDCK, 72 h, read-out: H1N1 EC50 (@ 50% Via)

Structure (SMILES) | EC50 [µM]
Cc1ccc(C2NC(=O)NC3=C2CCCc2ccccc23)cc1 (stereo not shown) [compound 22083] | 9.5
COc1ccc2c(c1)C1=C(CC2)C(c2ccc(C)cc2)NC(=O)N1 (stereo not shown) [compound 22087] | 47
Cc1ccc(C2NC(=O)NC3=C2COc2ccccc23)cc1C (stereo not shown) [compound 22105] | 14.9
COc1cccc(C2NC(=O)NC3=C2COc2ccccc23)c1 (stereo not shown) [compound 22107] | 46
Cc1cccc(C2NC(=O)NC3=C2COc2ccccc23)c1 (stereo not shown) [compound 22109] | > 50
COc1cccc2c1CCC1=C2NC(=O)NC1c1ccc(C)c(C)c1 (stereo not shown) [compound 22113] | 16.8
O=C1NC2=C(CCc3ccccc32)C(c2ccc(C(F)(F)F)cc2)N1 (stereo not shown) [compound 22119] | 11.7
O=C1NC2=C(CCc3ccccc32)C(c2ccc3c(c2)OCO3)N1 (stereo not shown) [compound 22121] | > 50
COc1cccc2c1CCC1=C2NC(=O)NC1c1ccc(C)cc1 (stereo not shown) [compound 22123] | > 50
COc1ccc(-c2nc(=O)[nH]c3c2CCc2ccccc2-3)cc1 [compound 22125] | 24
O=C1NC2=C(CCc3ccccc32)C(c2cccc([N+](=O)[O-])c2)N1 (stereo not shown) [compound 22347] | > 50
O=C1NC2=C(CCc3ccccc32)C(c2ccc([N+](=O)[O-])cc2)N1 (stereo not shown) [compound 22349] | 17.7
COc1ccc(C2NC(=O)NC3=C2CCc2ccccc23)cc1Br (stereo not shown) [compound 22405] | 0.425
O=C1NC2=C(CCc3ccccc32)C(c2ccc(F)c(Br)c2)N1 (stereo not shown) [compound 22409] | 1.4
COc1ccc(C2NC(=O)NC3=C2CSc2ccccc23)cc1Br (stereo not shown) [compound 22412] | 0.351
COc1ccc(C2NC(=O)NC3=C2CCc2ccccc23)cc1C (stereo not shown) [compound 22516] | 10
COc1ccc(C2NC(=O)NC3=C2COc2ccccc23)cc1Br (stereo not shown) [compound 22521] | 4
COc1ccc(C2NC(=O)NC3=C2CC(C)c2ccccc23)cc1Br (stereo not shown) [compound 22700] | 0.0985
Cc1cc(C2NC(=O)NC3=C2CCc2ccccc23)ccc1O (stereo not shown) [compound 22706] | 4.8
O=C1NC2=C(CCc3ccccc32)C(c2ccc(O)c(Br)c2)N1 (stereo not shown) [compound 22709] | 0.118
COc1ccc(C2NC(=O)NC3=C2CN(C(C)=O)c2ccccc23)cc1Br (stereo not shown) [compound 23099] | 0.0062
COc1ccc(C2NC(=O)NC3=C2CN(C(=O)CSCCN(C)C)c2ccccc23)cc1Br (stereo not shown) [compound 25410] | 15.6

System: Madin Darby Canine Kidney (MDCK) cells
Assay: cells
Format: cell-based
Conditions: Canis lupus familiaris, MDCK, read-out: IC50 (toxicity)

Structure (SMILES) | IC50 [µM]
Cc1ccc(C2NC(=O)NC3=C2CCCc2ccccc23)cc1 (stereo not shown) [compound 22083] | > 50
COc1ccc2c(c1)C1=C(CC2)C(c2ccc(C)cc2)NC(=O)N1 (stereo not shown) [compound 22087] | > 50
Cc1ccc(C2NC(=O)NC3=C2COc2ccccc23)cc1C (stereo not shown) [compound 22105] | > 50
COc1cccc(C2NC(=O)NC3=C2COc2ccccc23)c1 (stereo not shown) [compound 22107] | > 50
Cc1cccc(C2NC(=O)NC3=C2COc2ccccc23)c1 (stereo not shown) [compound 22109] | > 50
COc1cccc2c1CCC1=C2NC(=O)NC1c1ccc(C)c(C)c1 (stereo not shown) [compound 22113] | > 50
O=C1NC2=C(CCc3ccccc32)C(c2ccc(C(F)(F)F)cc2)N1 (stereo not shown) [compound 22119] | > 50
O=C1NC2=C(CCc3ccccc32)C(c2ccc3c(c2)OCO3)N1 (stereo not shown) [compound 22121] | 29.6
COc1cccc2c1CCC1=C2NC(=O)NC1c1ccc(C)cc1 (stereo not shown) [compound 22123] | > 50
COc1ccc(-c2nc(=O)[nH]c3c2CCc2ccccc2-3)cc1 [compound 22125] | > 50
O=C1NC2=C(CCc3ccccc32)C(c2cccc([N+](=O)[O-])c2)N1 (stereo not shown) [compound 22347] | > 50
O=C1NC2=C(CCc3ccccc32)C(c2ccc([N+](=O)[O-])cc2)N1 (stereo not shown) [compound 22349] | > 50
COc1ccc(C2NC(=O)NC3=C2CCc2ccccc23)cc1Br (stereo not shown) [compound 22405] | > 50
O=C1NC2=C(CCc3ccccc32)C(c2ccc(F)c(Br)c2)N1 (stereo not shown) [compound 22409] | > 50
COc1ccc(C2NC(=O)NC3=C2CSc2ccccc23)cc1Br (stereo not shown) [compound 22412] | > 50
COc1ccc(C2NC(=O)NC3=C2CCc2ccccc23)cc1C (stereo not shown) [compound 22516] | > 50
COc1ccc(C2NC(=O)NC3=C2COc2ccccc23)cc1Br (stereo not shown) [compound 22521] | > 50
COc1ccc(C2NC(=O)NC3=C2CC(C)c2ccccc23)cc1Br (stereo not shown) [compound 22700] | > 48
Cc1cc(C2NC(=O)NC3=C2CCc2ccccc23)ccc1O (stereo not shown) [compound 22706] | > 50
O=C1NC2=C(CCc3ccccc32)C(c2ccc(O)c(Br)c2)N1 (stereo not shown) [compound 22709] | > 53
COc1ccc(C2NC(=O)NC3=C2CN(C(C)=O)c2ccccc23)cc1Br (stereo not shown) [compound 23099] | > 40
COc1ccc(C2NC(=O)NC3=C2CN(C(=O)Cn2ccnc2)c2ccccc23)cc1Br (stereo not shown) [compound 25010] | > 40
COc1ccc(C2NC(=O)NC3=C2CN(C(=O)CNCCN2CCOCC2)c2ccccc23)cc1Br (stereo not shown) [compound 25011] | > 40
